We go through 13 compounds from PubChem BioAssay AID328 (DTP/NCI, 2004).

Values joined by “and” are separate entries in the source; they are usually repeats but may differ in a detail not shown here. Equal entries are not always repeated. Inconclusive results and toxic doses are left out.

This assay deals with BDF1 mice, P388 leukemia ip, median survival T/C. The assay can be described thus: NCI In Vivo Anticancer Drug Screen. Data for tumor model P388 Leukemia (intraperitoneal) in B6D2F1 (BDF1) mice. The conditions noted are these: endpoint: median survival time, higher = longer survival. In outline:
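Survival ratio, drug arm over vehicle arm, in mice with a transplanted tumour.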

Setting [1] is: dose: 100.0 mg/kg/injection, schedule: Q01DX009 (ip), vehicle: saline.
Where [2] appears, read: dose: 200.0 mg/kg/injection, schedule: Q01DX009 (ip), vehicle: saline.
The mark [3] stands for this setting: dose: 400.0 mg/kg/injection, schedule: Q01DX009 (ip), vehicle: saline.
The mark [4] stands for this setting: dose: 50.0 mg/kg/injection, schedule: Q01DX009 (ip), vehicle: saline with Tween-80.
The mark [5] stands for this setting: dose: 100.0 mg/kg/injection, schedule: Q01DX009 (ip), vehicle: saline with Tween-80.
Setting [6] is: dose: 200.0 mg/kg/injection, schedule: Q01DX009 (ip), vehicle: saline with Tween-80.
The mark [7] stands for this setting: dose: 50.0 mg/kg/injection, schedule: Q01DX009 (ip), vehicle: saline.
The mark [8] stands for this setting: dose: 50.0 mg/kg/injection, schedule: Q04DX003 (ip), vehicle: saline.
Where [9] appears, read: dose: 100.0 mg/kg/injection, schedule: Q04DX003 (ip), vehicle: saline.
Setting [10] is: dose: 200.0 mg/kg/injection, schedule: Q04DX003 (ip), vehicle: saline.
[11] abbreviates: dose: 100.0 mg/kg/injection, schedule: Q04DX003 (ip), vehicle: Klucel (hydroxypropylcellulose) (HPC).
The mark [12] stands for this setting: dose: 200.0 mg/kg/injection, schedule: Q04DX003 (ip), vehicle: Klucel (hydroxypropylcellulose) (HPC).
[13] abbreviates: dose: 400.0 mg/kg/injection, schedule: Q04DX003 (ip), vehicle: Klucel (hydroxypropylcellulose) (HPC).

Consider `C=CCN(CC=C)P(=O)(N1CC1)N1CC1C` (stereo unspecified), for which the T/C (dose: 0.25 mg/kg/injection, schedule: Q04DX003 (ip), vehicle: saline) was 120 % of control; the T/C (dose: 0.31 mg/kg/injection, schedule: Q01DX009 (ip), vehicle: saline) was 100 % of control; the T/C (dose: 0.5 mg/kg/injection, schedule: Q01DX009 (ip), vehicle: saline) was 156 % of control and 158 % of control; the T/C (dose: 0.83 mg/kg/injection, schedule: Q01DX009 (ip), vehicle: saline) is 150 % of control and 166 % of control and 173 % of control; the T/C (dose: 1.65 mg/kg/injection, schedule: Q04DX003 (ip), vehicle: saline) is 159 % of control; the T/C (dose: 1.8 mg/kg/injection, schedule: Q01DX009 (ip), vehicle: saline) is 91 % of control. Also, the T/C is, setting by setting: (dose: 2.5 mg/kg/injection, schedule: Q04DX003 (ip), vehicle: saline) 163 % of control and 190 % of control; (dose: 3.75 mg/kg/injection, schedule: Q04DX003 (ip), vehicle: saline) 163 % of control; (dose: 5.0 mg/kg/injection, schedule: Q04DX003 (ip), vehicle: saline) 90 % of control.
Take `Cc1[nH]c(=S)[nH]c(=O)c1CN(CCO)CCO`: the T/C is, setting by setting: (dose: 50.0 mg/kg/injection, schedule: Q01DX001 (ip), vehicle: Klucel (hydroxypropylcellulose) (HPC)) 96 % of control; (dose: 100.0 mg/kg/injection, schedule: Q01DX001 (ip), vehicle: Klucel (hydroxypropylcellulose) (HPC)) 96 % of control; (dose: 200.0 mg/kg/injection, schedule: Q01DX001 (ip), vehicle: Klucel (hydroxypropylcellulose) (HPC)) 96 % of control.
For the compound `C[Si](C)(C)OC/C=C\CO[Si](C)(C)C`, the T/C runs as follows: under setting [1], 100 % of control; under setting [2], 108 % of control; under setting [3], 108 % of control.
As to `NCc1c(Cl)c(Cl)c(Cl)c(CN)c1Cl`, the T/C under setting [4] is 100 % of control, the T/C under setting [5] was 90 % of control and the T/C under setting [6] is 86 % of control.
For the compound `COc1ccc2nc(Cl)c(C)c(C)c2c1`, the T/C (dose: 12.5 mg/kg/injection, schedule: Q01DX009 (ip), vehicle: saline) was 96 % of control; the T/C (dose: 25.0 mg/kg/injection, schedule: Q01DX009 (ip), vehicle: saline) is 88 % of control; the T/C (dose: 25.0 mg/kg/injection, schedule: Q04DX003 (ip), vehicle: saline) was 100 % of control; the T/C under setting [7] is 93 % of control; the T/C under setting [8] is 100 % of control; the T/C under setting [9] is 109 % of control. Further, the T/C under setting [10] was 90 % of control; the T/C under setting [3] was 92 % of control; the T/C (dose: 400.0 mg/kg/injection, schedule: Q04DX003 (ip), vehicle: saline) was 100 % of control.
As for `CCCCn1cnc2c(SC)ncnc21`, the T/C is 100 % of control (dose: 22.0 mg/kg/injection, schedule: Q04DX003 (ip), vehicle: saline); 104 % of control (dose: 33.0 mg/kg/injection, schedule: Q04DX003 (ip), vehicle: saline); 95 % of control under setting [7]; 104 % of control under setting [8]; 113 % of control (dose: 75.0 mg/kg/injection, schedule: Q04DX003 (ip), vehicle: saline); 100 % of control under setting [1]. In addition, the T/C was 104 % of control under setting [9], 104 % of control under setting [2] and 90 % of control under setting [10].
In the case of `CCCCCCCCSC(=S)N(C)NC(=O)c1ccccn1`, the T/C by setting is: under setting [4], 99 % of control; under setting [5], 105 % of control.
With `CC/C(=N\NS(=O)(=O)c1ccc(C)cc1)c1ccc(OC)c(OC)c1`, the T/C is 96 % of control under setting [7], 96 % of control under setting [1] and 92 % of control under setting [2].
`CCOC(=O)CNC(=O)C(CSSCC(NC(=O)OCc1ccccc1)C(=O)NCC(=O)OCC)NC(=O)OCc1ccccc1` (stereo unspecified): the T/C was 118 % of control under setting [11], 86 % of control under setting [12] and 109 % of control under setting [13].
With `Cc1ccc(C(Br)C2=CC(C)(C)c3ccccc3C2=O)cc1` (stereo unspecified), the T/C (dose: 100.0 mg/kg/injection, schedule: Q01DX009 (ip), vehicle: Klucel (hydroxypropylcellulose) (HPC)) is 118 % of control; the T/C under setting [11] is 95 % of control; the T/C (dose: 200.0 mg/kg/injection, schedule: Q01DX009 (ip), vehicle: Klucel (hydroxypropylcellulose) (HPC)) was 90 % of control and 95 % of control; the T/C under setting [12] is 113 % of control; the T/C (dose: 300.0 mg/kg/injection, schedule: Q01DX009 (ip), vehicle: Klucel (hydroxypropylcellulose) (HPC)) is 113 % of control; the T/C (dose: 400.0 mg/kg/injection, schedule: Q01DX009 (ip), vehicle: Klucel (hydroxypropylcellulose) (HPC)) was 100 % of control. Also, the T/C under setting [13] was 113 % of control.
Turning to `CCNC(=S)N/N=C/c1ccc[nH]1`, the T/C (dose: 15.0 mg/kg/injection, schedule: Q01DX009 (ip), vehicle: saline with Tween-80) was 104 % of control; the T/C (dose: 30.0 mg/kg/injection, schedule: Q01DX009 (ip), vehicle: saline with Tween-80) was 88 % of control; the T/C (dose: 60.0 mg/kg/injection, schedule: Q01DX009 (ip), vehicle: saline with Tween-80) was 101 % of control.
Take `CCOC12CC(OC(=O)N1)C(C)C1OC1(C)C(OC(=O)C(C)N(C)C(C)=O)CC(=O)N(C)c1cc(cc(OC)c1Cl)C/C(C)=C/C=CC2OC` (stereo unspecified): the T/C was 99 % of control (dose: 1.6 micrograms/kg/injection, schedule: Q01DX009 (ip), vehicle: saline + alcohol); 99 % of control (dose: 3.1 micrograms/kg/injection, schedule: Q01DX009 (ip), vehicle: saline + alcohol); 99 % of control (dose: 6.2 micrograms/kg/injection, schedule: Q01DX009 (ip), vehicle: saline + alcohol); 101 % of control (dose: 12.5 micrograms/kg/injection, schedule: Q01DX009 (ip), vehicle: saline + alcohol); 116 % of control (dose: 25.0 micrograms/kg/injection, schedule: Q01DX009 (ip), vehicle: saline + alcohol); 98 % of control (dose: 50.0 micrograms/kg/injection, schedule: Q01DX009 (ip), vehicle: saline + alcohol). In addition, the T/C by setting is: (dose: 100.0 micrograms/kg/injection, schedule: Q01DX009 (ip), vehicle: saline + alcohol) 105 % of control; (dose: 200.0 micrograms/kg/injection, schedule: Q01DX009 (ip), vehicle: saline + alcohol) 98 % of control; (dose: 400.0 micrograms/kg/injection, schedule: Q01DX009 (ip), vehicle: saline + alcohol) 100 % of control.
With `CS(=O)(=O)OCC(O)C(O)COS(C)(=O)=O` (stereo unspecified), the T/C reads like this: (dose: 50.0 mg/kg/injection, schedule: Q01DX010 (ip), vehicle: saline) 109 % of control; under setting [5], 91 % of control; (dose: 100.0 mg/kg/injection, schedule: Q01DX010 (ip), vehicle: saline) 109 % of control; under setting [6], 100 % of control; (dose: 200.0 mg/kg/injection, schedule: Q01DX010 (ip), vehicle: saline) 100 % of control; (dose: 400.0 mg/kg/injection, schedule: Q01DX009 (ip), vehicle: saline with Tween-80) 87 % of control. Besides, the T/C reads like this: (dose: 400.0 mg/kg/injection, schedule: Q01DX010 (ip), vehicle: saline) 209 % of control; (dose: 800.0 mg/kg/injection, schedule: Q01DX010 (ip), vehicle: saline) 163 % of control.
